Test results: ChEMBL document CHEMBL4619793, “Pyrazolo[4,3-d]pyrimidine Derivatives as a Novel Hypoxia-Inducible Factor Prolyl Hydroxylase Domain Inhibitor for the Treatment of Anemia” (ACS Med Chem Lett, 2020)
Values after ≈ are worked out from the molar mass of the structure shown. Values belong to the molecule of their own block, whether it stands above or below them. Active and inactive are the calls of the source. The calls are words filed in the database; no cut-off is given here.

Assays:
[1] = Solubility of the compound in buffer at pH 6.5; format: physicochemical
[2] = Volume of distribution at steady state in Sprague-Dawley rat at 0.5 mg/kg, iv; format: ADME, organism-based; conditions: in vivo, read-out: Vdss
[3] = Total clearance in Sprague-Dawley rat at 0.5 mg/kg, iv; format: ADME, organism-based; conditions: in vivo
[4] = tested on: Mus musculus; assay: In vivo inhibition of HIF-PHD2 in ICR mouse assessed as serum erythropoietin level at 30 mg/kg, po administered as single dose measured after 6 hrs by immunoassay (reference value: 125 pg/ml); format: functional
[5] = Oral bioavailability in Sprague-Dawley rat at 10 mg/kg; format: ADME, organism-based; conditions: in vivo
[6] = AUC (0 to infinity) in Sprague-Dawley rat at 0.5 mg/kg, iv; format: ADME, organism-based; design: dose 0.5 mg/kg, route intravenous, time infinity; conditions: in vivo
[7] = Cmax in Sprague-Dawley rat at 10 mg/kg, po; format: ADME, organism-based; design: dose 10 mg/kg, route oral; conditions: in vivo
[8] = Cmax in Sprague-Dawley rat at 0.5 mg/kg, iv; format: ADME, organism-based; design: dose 0.5 mg/kg, route intravenous; conditions: in vivo
[9] = tested on: Mus musculus; assay: In vivo inhibition of HIF-PHD2 in ICR mouse assessed as serum erythropoietin level at 10 mg/kg, po administered as single dose measured after 6 hrs by immunoassay (reference value: 125 pg/ml); format: functional
[10] = AUC (0 to infinity) in Sprague-Dawley rat at 10 mg/kg, po; format: ADME, organism-based; design: dose 10 mg/kg, time infinity, route oral; conditions: in vivo
[11] = tested on: Rattus norvegicus; assay: Antianemic activity in kidney excised-induced renal anemia Sprague-Dawley rat model assessed as improvement in blood hemoglobin level at 1 mg/kg, po administered once daily for 4 weeks measured 2 week post initial dose; format: functional, organism-based
[12] = Total clearance in Sprague-Dawley rat at 1 mg/kg, iv; format: ADME, organism-based; conditions: in vivo
[13] = molecular target: Egl nine homolog 1 (Rattus norvegicus) (UniProt P59722); assay: In vivo inhibition of HIF-PHD2 in Sprague-Dawley rat assessed as increase in serum erythropoietin level at 10 mg/kg, po administered as single dose measured after 8 hrs by immunoassay; format: functional, organism-based
Sequence of Egl nine homolog 1 (Rattus norvegicus) (P59722 whole entry): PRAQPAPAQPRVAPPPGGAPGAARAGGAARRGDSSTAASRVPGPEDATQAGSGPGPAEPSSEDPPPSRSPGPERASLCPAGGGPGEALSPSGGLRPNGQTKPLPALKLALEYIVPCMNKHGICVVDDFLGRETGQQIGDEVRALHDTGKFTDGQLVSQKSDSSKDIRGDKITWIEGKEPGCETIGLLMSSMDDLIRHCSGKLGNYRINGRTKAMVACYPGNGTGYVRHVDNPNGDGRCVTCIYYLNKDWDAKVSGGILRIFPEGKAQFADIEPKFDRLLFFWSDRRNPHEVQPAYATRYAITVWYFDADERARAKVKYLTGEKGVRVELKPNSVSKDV

[14] = Oral bioavailability in Sprague-Dawley rat at 1 mg/kg; format: ADME, organism-based; conditions: in vivo
[15] = AUC (0 to infinity) in Sprague-Dawley rat at 1 mg/kg, po; format: ADME, organism-based; design: dose 1 mg/kg, time infinity, route oral; conditions: in vivo
[16] = tested on: Rattus norvegicus; assay: Antianemic activity in kidney excised-induced renal anemia Sprague-Dawley rat model assessed as improvement in blood hemoglobin level at 2 mg/kg, po administered once daily for 4 weeks measured 1 week post initial dose; format: functional, organism-based
[17] = Cmax in Sprague-Dawley rat at 1 mg/kg, po; format: ADME, organism-based; design: dose 1 mg/kg, route oral; conditions: in vivo
[18] = AUC (0 to infinity) in Sprague-Dawley rat at 1 mg/kg, iv; format: ADME, organism-based; design: dose 1 mg/kg, time infinity, route intravenous; conditions: in vivo
[19] = Cmax in Sprague-Dawley rat at 1 mg/kg, iv; format: ADME, organism-based; design: dose 1 mg/kg, route intravenous; conditions: in vivo
[20] = Volume of distribution at steady state in Sprague-Dawley rat at 1 mg/kg, iv; format: ADME, organism-based; conditions: in vivo, read-out: Vdss
[21] = tested on: Mus musculus; assay: In vivo inhibition of HIF-PHD2 in ICR mouse assessed as serum erythropoietin level at 100 mg/kg, po administered as single dose measured after 6 hrs by immunoassay (reference value: 146 pg/ml); format: functional

Structure (SMILES): O=C(O)c1cnn(-c2nc3cnn(Cc4ccc(-c5ccc(F)cc5)c(F)c4)c3c(=O)[nH]2)c1
solubility [1]: 49 µg/mL (≈ 109 µM)

Structure (SMILES): C[C@@H](c1cc(Cl)ccc1Cl)n1ncc2nc(-n3cc(C(=O)O)cn3)[nH]c(=O)c21
Activity [11]: Active
clearance [12]: 0.567 mL/min/kg
inhibition [13]: Active
bioavailability [14]: 77%
AUC(0-inf) [15]: 23500 ng·h/mL
Activity [16]: Active
Cmax [17]: 1840 ng/mL
AUC(0-inf) [18]: 30400 ng·h/mL
solubility [1]: > 1000 µg/mL
Cmax [19]: 12400 ng/mL
Vd [20]: 0.249 L/kg

Structure (SMILES): O=C(O)c1cnn(-c2nc3cnn(Cc4ccc(Cl)c(Cl)c4)c3c(=O)[nH]2)c1
solubility [1]: 88 µg/mL (≈ 217 µM)

Structure (SMILES): O=C(O)c1cnn(-c2nc3cn(Cc4ccc(-c5ccccc5)cc4)nc3c(=O)[nH]2)c1
Activity [21]: 450 pg/mL

Now from value to molecule, other results behind:

Vd [2]: 0.197 L/kg
clearance [3]: 1.52 mL/min/kg
bioavailability [5]: 16%
AUC(0-inf) [6]: 5560 ng·h/mL
Cmax [7]: 2710 ng/mL
Cmax [8]: 4910 ng/mL
solubility [1]: 9.5 µg/mL (≈ 23 µM)
AUC(0-inf) [10]: 17800 ng·h/mL
Structure (SMILES): O=C(O)c1cnn(-c2nc3cnn(Cc4ccc(-c5ccccc5)cc4)c3c(=O)[nH]2)c1
Activity [4]: 89000 pg/mL
Activity [9]: 63000 pg/mL

solubility [1]: 75 µg/mL (≈ 179 µM)
Structure (SMILES): C[C@@H](c1ccc(Cl)c(Cl)c1)n1ncc2nc(-n3cc(C(=O)O)cn3)[nH]c(=O)c21
